≈ marks a conversion by molar mass, not a printed value.
Experiments:
Homo sapiens [1] = species: Homo sapiens; test: Inhibitory concentration of compound was determined against SFLLRN (3 uM) induced platelet aggregation; assay type: functional
Homo sapiens [2] = species: Homo sapiens; test: Inhibitory concentration of compound was determined against U-46619 (3 uM) induced platelet aggregation; assay type: functional

IC50 (Homo sapiens [1]): 0.3 µg/mL (≈ 0.399 µM)
IC50 (Homo sapiens [2]): 1.7 µg/mL (≈ 2.26 µM)
Structure (SMILES): CC(C)=CCC[C@@H](C)[C@H]1CC[C@@]2(C(=O)O)C3=C(CC[C@]12C)[C@@]1(C)CC[C@H](O[C@@H]2OC[C@H](O)[C@H](O)[C@H]2O[C@@H]2O[C@H](CO)[C@H](O)[C@H](O)[C@H]2O)C(C)(C)[C@@H]1CC3 [ERYLOSIDE F]
